Measured values: patent publication US9150592B2, “Heterocyclic nuclear hormone receptor modulators” (AbbVie Inc., priority 2012, dated 2015)

Columns and labels:
[1] = test system: IL-6 in A549 cells stimulated with IL-1β; assay: A549 Cell Assay to Measure Inflammation Markers (inhibition of IL-1β-induced IL-6); type: cell-based; settings: intrinsic activity, Emax class ranges; for Emax: Homo sapiens, A549, A549 Cell Assay to Measure Inflammation Markers
Outline: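 Compound pre-incubated with A549 cells 1 h at 37 °C, then stimulated with IL-1β (1 ng/mL final, 0.1% DMSO). Supernatant IL-6 quantified by MSD immunoassay after a further incubation. IC50 and Emax derived.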

[2] = target: T1, Glucocorticoid Receptor (GR) (Homo sapiens, UniProt P04150); assay: GR Fluorescence Polarization Assay (PolarScreen Glucocorticoid Receptor Competitor Assay, Red); settings: IC50 class ranges, read-out: GR binding
T1 construct: purchased Invitrogen P2893
T1 sequence (P04150 1-777): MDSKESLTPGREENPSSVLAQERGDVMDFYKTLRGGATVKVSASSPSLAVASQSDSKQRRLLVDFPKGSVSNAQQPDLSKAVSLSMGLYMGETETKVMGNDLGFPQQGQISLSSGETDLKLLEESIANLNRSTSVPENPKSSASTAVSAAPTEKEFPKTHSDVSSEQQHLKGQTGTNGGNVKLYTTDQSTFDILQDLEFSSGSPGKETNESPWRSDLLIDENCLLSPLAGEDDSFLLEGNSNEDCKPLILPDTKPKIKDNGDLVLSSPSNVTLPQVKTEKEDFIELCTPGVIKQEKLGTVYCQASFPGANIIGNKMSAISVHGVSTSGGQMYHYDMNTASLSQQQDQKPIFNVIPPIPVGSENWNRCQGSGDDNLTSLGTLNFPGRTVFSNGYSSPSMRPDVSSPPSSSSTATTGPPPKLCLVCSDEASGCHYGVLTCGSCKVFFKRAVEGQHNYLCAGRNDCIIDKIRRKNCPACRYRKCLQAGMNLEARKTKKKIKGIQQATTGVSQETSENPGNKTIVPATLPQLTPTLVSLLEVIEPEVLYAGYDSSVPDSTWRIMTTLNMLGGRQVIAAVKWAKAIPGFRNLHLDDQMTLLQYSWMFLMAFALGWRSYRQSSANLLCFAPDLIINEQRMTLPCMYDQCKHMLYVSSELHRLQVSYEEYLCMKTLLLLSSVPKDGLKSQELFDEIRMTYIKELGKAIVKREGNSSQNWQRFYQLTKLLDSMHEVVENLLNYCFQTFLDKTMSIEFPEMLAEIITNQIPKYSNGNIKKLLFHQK
Outline: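 Competitive fluorescence-polarization assay using a red fluorescent glucocorticoid tracer with human GR in kit buffer. Compounds serially diluted 1:4 in DMSO, incubated with tracer and GR overnight at 4° C, then polarization read.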

| Compound | Emax [1] [%] | IC50 [2] [nM] | A549 Emax ([1]; A549 Cell Assay to Measure Inflammation Markers) |
| --- | --- | --- | --- |
| Cc1cc(C#N)ccc1[C@@H]1S[C@@H](C)CNc2c1c(C1CC1)nn2C (racemic) [G.4] | < 50 | < 100 | – |
| Cc1cc(CCC(C)(C)O)ccc1[C@@H]1SC[C@H](C)Nc2c1c(-c1ccccn1)nn2C (single isomer, unassigned) [M.42, 4-(4-(1,7-dimethyl-3-(pyridin-2-yl)-4,6,7,8-tetrahydro-1H-pyrazolo[3,4-e][1,4]thiazepin-4-yl)-3-methylphenyl)-2-methylbutan-2-ol] | > 60 | < 100 | – |
| Cn1nc(-c2cc(F)cc(F)c2)c2c1NCCSC2c1ccc(Cl)cc1Cl (stereo not shown) [D.90] | < 50 | < 100 | – |
| Cn1nc(-c2ccc(Cl)cc2)c2c1NCCSC2c1ccc(Cl)cc1Cl (stereo not shown) [D.82] | < 50 | 100 to 1000 | – |
| Cc1cc(S(C)(=O)=O)ccc1C1SC(C)(C)CNc2c1c(C)nn2C (stereo not shown) [D.71] | < 50 | 1000 to 10000 | – |
| Cc1sc(Br)cc1C1SCCNc2c1c(-c1ccccn1)nn2C (stereo not shown) [D.34, 4-(5-bromo-2-methyl-3-thienyl)-1-methyl-3-(2-pyridyl)-4,6,7,8-tetrahydropyrazolo[3,4-e][1,4]thiazepine] | < 50 | < 100 | – |
| Cc1cc(Br)ccc1C1SC(C)CNc2c1c(C1CC1)nn2C (stereo not shown) [D.52] | – | < 100 | D (a compound with Emax<50%) |
| Cc1cc(C#N)ccc1C1SCCNc2c1c(-c1ccccn1)nn2C (single isomer, unassigned) [M.20, 3-methyl-4-(1-methyl-3-(pyridin-2-yl)-4,6,7,8-tetrahydro-1H-pyrazolo[3,4-e][1,4]thiazepin-4-yl)benzonitrile] | > 70 | < 100 | – |
| Cc1ncccc1NC(=O)c1cc(C2SCCNc3c2c(-c2ccccn2)nn3C)c(C)s1 (stereo not shown) [F.6] | < 50 | 1000 to 10000 | – |
| CCn1nc(C2CC2)c2c1NCC(C)(C)SC2c1ccc(Cl)cc1C (stereo not shown) [D.107] | < 50 | < 100 | – |
| CC1CSC(c2ccc(Br)cc2C(F)(F)F)c2c(-c3ccccn3)nn(C)c2N1 (stereo not shown) [K.11] | < 50 | < 100 | – |
| Cc1cc(O)ccc1C1SCCNc2c1c(-c1ccccn1)nn2C (stereo not shown) [D.42, 3-methyl-4-[1-methyl-3-(2-pyridyl)-4,6,7,8-tetrahydropyrazolo[3,4-e][1,4]thiazepin-4-yl]phenol] | > 50 | < 100 | – |
| Cc1cc(Cl)ccc1[C@@H]1SC[C@@H](C)Nc2c1c(-c1ccccn1)nn2C | > 70 | < 100 | – |
| Cc1cc(C(=O)Nc2cccnc2C)ccc1C1SCCNc2c1c(-c1ccccn1)nn2C (stereo not shown) | > 70 | < 100 | – |
| CCn1nc(-c2ccccn2)c2c1N[C@@H](C)CS[C@H]2c1ccc(C#CCO)cc1C (single isomer, unassigned) [M.28, 3-(4-(1-ethyl-7-methyl-3-(pyridin-2-yl)-4,6,7,8-tetrahydro-1H-pyrazolo[3,4-e][1,4]thiazepin-4-yl)-3-methylphenyl)prop-2-yn-1-ol] | > 60 | < 100 | – |
| Cc1cc(F)ccc1C1SC(C)(C)CNc2c1c(C1CC1)nn2C (stereo not shown) [D.56] | < 50 | < 100 | – |
| Cn1nc(-c2ccncc2)c2c1NCCSC2c1ccc(Cl)cc1Cl (stereo not shown) [D.18] | < 50 | 100 to 1000 | – |
